The source of these data is patent US10294202B2, “Pyrrolidinones as herbicides” (FMC Corporation, priority 2013, dated 2019).

Test in all cases: Test D pre-/postemergence herbicide test
Assay [1] relates to kochia. The assay is classed as in vivo, Kochia scoparia. The settings on record: for Plant response rating: Kochia, scale 0 to 100; for Plant response rating, Kochia: scale 0 to 100 (0 no effect, 100 complete control). The source says:
(§1) Seeds of plant species selected from bluegrass (annual bluegrass, Poa annua), blackgrass (Alopecurus myosuroides), canarygrass (littleseed canarygrass, Phalaris minor), chickweed (common chickweed, Stellaria media), galium (catchweed bedstraw, Galium aparine), bromegrass, downy (downy bromegrass, Bromus tectorum), field poppy (Papaver rhoeas), field violet (Viola arvensis), foxtail, green (green foxtail, Setaria viridis), deadnettle (henbit deadnettle, Lamium amplexicaule), ryegrass, Italian (Italian ryegrass, Lolium multiflorum), kochia (Kochia scoparia), lambsquarters (Chenopodium album), oilseed rape (Brassica napus), pigweed (Amaranthus retroflexus), chamomile (scentless chamomile, Matricaria inodora), Russian thistle (Salsola kali), speedwell (bird's-eye speedwell, Veronica persica), barley, spring (spring barley, Hordeum vulgare), wheat, spring (spring wheat, Triticum aestivum), buckwheat, wild (wild buckwheat, Polygonum convolvulus), mustard, wild (wild mustard, Sinapis arvensis), oat, wild (wild oat, Avena fatua), radish, wild (wild radish, Raphanus raphanistrum), […]), barley, winter (winter barley, Hordeum vulgare), and wheat, winter (winter wheat, Triticum aestivum) were planted into a silt loam soil and treated preemergence with test chemicals formulated in a non-phytotoxic solvent mixture which included a surfactant. At the same time, these species were planted in pots containing Redi-Earth® planting medium (Scotts Company, 14111 Scottslawn Road, Marysville, Ohio 43041) comprising spaghnum peat moss, vermiculite, wetting agent and starter nutrients and treated with postemergence applications of the test chemicals formulated in the same manner. Plants ranged in height from 2 to 18 cm (1- to 4-leaf stage). Treated plants and controls were maintained in a controlled growth environment for 7 to 21 days after which time all species were compared to controls and visually evaluated. Plant response ratings, summarized in Table D, are based on a scale of 0 to 100 where 0 is no effect and 100 is complete control. A dash (-) response means no test result.

The test system of assay [2] is chamomile. The assay is classed as in vivo, Matricaria inodora. The settings on record: for Plant response rating: Chamomile, scale 0 to 100; for Plant response rating, Chamomile: scale 0 to 100 (0 no effect, 100 complete control).
Source text: as §1

Assay [3] deals with lambsquarters. The assay is classed as in vivo, Chenopodium album. Particulars: for Plant response rating: Lambsquarters, scale 0 to 100; for Plant response rating, Lambsquarters: scale 0 to 100 (0 no effect, 100 complete control).
Source text: as §1

As for `O=C1NCC(c2ccc(F)c(F)c2)C1C(=O)Nc1cccc(F)c1` (racemic) [Compound 12], the Plant response rating in assay [1] (Postemergence, 16 g ai/ha) came out at 5; in assay [1] (Postemergence, 31 g ai/ha) it was 5; in assay [1] (Postemergence, 62 g ai/ha), 20; in assay [1] (Postemergence, 125 g ai/ha) it was 20; in assay [1] (Postemergence, 250 g ai/ha), 35; in assay [1] (Preemergence, 125 g ai/ha), 0. Further, the Plant response rating in assay [1] (Preemergence, 250 g ai/ha) is 0; in assay [2] (Postemergence, 16 g ai/ha) it was 0; in assay [2] (Postemergence, 31 g ai/ha) it was 0; in assay [2] (Postemergence, 62 g ai/ha), 0; in assay [2] (Postemergence, 125 g ai/ha), 0; in assay [2] (Postemergence, 250 g ai/ha), 0. Also, the Plant response rating in assay [2] (Preemergence, 125 g ai/ha) is 0; in assay [2] (Preemergence, 250 g ai/ha), 20; in assay [3] (Postemergence, 16 g ai/ha), 0; in assay [3] (Postemergence, 31 g ai/ha), 0; in assay [3] (Postemergence, 62 g ai/ha), 10; in assay [3] (Postemergence, 125 g ai/ha) it was 10. In addition, the Plant response rating in assay [3] (Postemergence, 250 g ai/ha) stood at 25; in assay [3] (Preemergence, 125 g ai/ha), 30; in assay [3] (Preemergence, 250 g ai/ha), 30. Further, the “Plant response rating, Kochia” value in assay [1] (Preemergence, 31 g ai/ha) is reported as 0; in assay [1] (Preemergence, 62 g ai/ha), 0; in assay [1] (Preemergence, 16 g ai/ha), 0. In addition, the “Plant response rating, Chamomile” value is 0 in assay [2] (Preemergence, 31 g ai/ha); 0 in assay [2] (Preemergence, 62 g ai/ha); 0 in assay [2] (Preemergence, 16 g ai/ha). Further, the “Plant response rating, Lambsquarters” value in assay [3] (Preemergence, 31 g ai/ha) came to 0; in assay [3] (Preemergence, 62 g ai/ha), 0; in assay [3] (Preemergence, 16 g ai/ha) it was 0.

Turning to `O=C1NCC(c2cc(F)c(F)c(F)c2)C1C(=O)Nc1ccccc1C(F)(F)F` (racemic) [Compound 33], the Plant response rating in assay [1] (Postemergence, 16 g ai/ha) is 0; in assay [1] (Postemergence, 31 g ai/ha) it was 0; in assay [1] (Postemergence, 62 g ai/ha), 0; in assay [1] (Postemergence, 125 g ai/ha), 0; in assay [1] (Postemergence, 250 g ai/ha), 10; in assay [2] (Postemergence, 16 g ai/ha), 0. Moreover, the Plant response rating in assay [2] (Postemergence, 31 g ai/ha) is on record as 0; in assay [2] (Postemergence, 62 g ai/ha), 0; in assay [2] (Postemergence, 125 g ai/ha) it was 0; in assay [2] (Postemergence, 250 g ai/ha), 0; in assay [3] (Postemergence, 16 g ai/ha) it was 0; in assay [3] (Postemergence, 31 g ai/ha), 0. Also, the Plant response rating in assay [3] (Postemergence, 62 g ai/ha) is 0; in assay [3] (Postemergence, 125 g ai/ha) it was 0; in assay [3] (Postemergence, 250 g ai/ha), 20.

Take `O=C1NCC(c2cccc(C(F)(F)F)c2)C1C(=O)Nc1cccc(F)c1F` (stereo not shown) [Compound 241]: the “Plant response rating, Kochia” value stood at 20 in assay [1] (Preemergence, 31 g ai/ha); 30 in assay [1] (Preemergence, 62 g ai/ha); 80 in assay [1] (Preemergence, 125 g ai/ha). Also, the Plant response rating in assay [1] (Preemergence, 250 g ai/ha) is given as 70; in assay [3] (Preemergence, 250 g ai/ha), 90. Besides, the “Plant response rating, Lambsquarters” value in assay [3] (Preemergence, 31 g ai/ha) came to 85; in assay [3] (Preemergence, 62 g ai/ha), 90; in assay [3] (Preemergence, 125 g ai/ha), 90.

With `O=C1NCC(c2cccc(C(F)(F)F)c2)C1C(=O)Nc1ccc(F)cc1F` (racemic) [Compound 207], the “Plant response rating, Kochia” value in assay [1] (Preemergence, 31 g ai/ha) was 10; in assay [1] (Preemergence, 62 g ai/ha), 10; in assay [1] (Preemergence, 125 g ai/ha) it was 10. Besides, the Plant response rating in assay [1] (Preemergence, 250 g ai/ha) is given as 60; in assay [2] (Preemergence, 250 g ai/ha), 85; in assay [3] (Preemergence, 250 g ai/ha), 90. Moreover, the “Plant response rating, Chamomile” value in assay [2] (Preemergence, 31 g ai/ha) stood at 75; in assay [2] (Preemergence, 62 g ai/ha), 80; in assay [2] (Preemergence, 125 g ai/ha), 85. Also, the “Plant response rating, Lambsquarters” value in assay [3] (Preemergence, 31 g ai/ha) was 0; in assay [3] (Preemergence, 62 g ai/ha), 30; in assay [3] (Preemergence, 125 g ai/ha), 65.

Turning to `O=C1NCC(c2cc(F)c(F)c(F)c2)C1C(=O)Nc1ccccc1F` (racemic) [Compound 34], the Plant response rating in assay [1] (Postemergence, 16 g ai/ha) was found to be 0; in assay [1] (Postemergence, 62 g ai/ha), 0; in assay [1] (Postemergence, 125 g ai/ha), 10; in assay [1] (Postemergence, 250 g ai/ha), 25; in assay [2] (Postemergence, 16 g ai/ha) it was 0; in assay [2] (Postemergence, 31 g ai/ha) it was 0. For the same compound, the Plant response rating in assay [2] (Postemergence, 62 g ai/ha) is recorded as 0; in assay [2] (Postemergence, 125 g ai/ha), 0; in assay [2] (Postemergence, 250 g ai/ha), 0; in assay [3] (Postemergence, 16 g ai/ha), 0; in assay [3] (Postemergence, 31 g ai/ha), 0; in assay [3] (Postemergence, 62 g ai/ha), 0. Moreover, the Plant response rating in assay [3] (Postemergence, 125 g ai/ha) was determined as 0; in assay [3] (Postemergence, 250 g ai/ha), 20.
